Legend:
[1] = tested on: Myzus persicae; experiment: Toxicity test on larval development on Ap3 feeding medium (larval mortality, weight of wingless adults); assay type: in vivo
Experimental: The goal is to quantify the toxic effect of 3,5-diCQ on the aphid throughout its larval development, namely 8 to 10 days for Myzus persicae at 19° C. The molecule is added at various concentrations to the Ap3 feeding medium.
(§1) The medium ([…]) is poured between two UV-sterilized Parafilm® membranes and drawn onto a cylindrical support made of PVC (h=1.5 cm, d=2 cm), under sterile conditions. On Day D0, 20 neonate larvae are placed inside the cylinder, which is then turned over and pressed onto a square of Parafilm®. The dishes are placed under dimmed light (16 hr day/8 hr night) and in an enclosure set at 19° C. The fixation percentage is recorded after 1 hour as a short-term phagostimulation indicator and in order to verify that no anomaly had occurred when the aphids were placed inside the cylinder. Larval mortality is noted daily at the end of the day. On Day D+3, the larvae are sampled and split up into two new dishes. On the day of their adult molt, the aphids that have reached the wingless adult stage are deposited successively onto a precision scale (d=0.01 mg) and the cumulative weights are recorded for each concentration of each tested molecule. Individual weights are calculated thereafter. The effects of a single molecule at all concentrations and the effects of the control medium are evaluated simultaneously during the same test. The tests are routinely performed in 3 repetitions.

[2] = tested on: Myzus persicae; experiment: Selection test between two media (phagostimulation index, repulsivity); assay type: in vivo; details: for concentration at which significantly repulsive: against Ap3 control medium; for concentration at which the repulsive effect (negative phagostimulation index) is significant: tested against Ap3 medium, lowest concentration tested 0.25 mM
Excerpt: The method used is the one developed by Yvan Rahbé (Rahbé & Febvay (1993) Entomologia Experimentalis et Applicata 67: 149-160; Chen (1996) Thesis, Institut National des Sciences Appliquées, Lyon, France: 158 pp.) in the context of research on the chemical determinants of plant resistance to various aphid species (Aphis gossypii, Acyrthosiphon pisum), and adapted to the green peach aphid, Myzus persicae.
(§2) The goal is to evaluate the attractive or repulsive character of a candidate molecule, at various concentrations, either in relation to a control base medium or in relation to another substance. The base medium used, referred to as Ap3 (composition in the table in FIG. 10), was developed at the UMR INRA-INSA in Lyon in order to enable optimal development of the Acyrtosiphon pisum aphid species (Febvay et al. (1988) Canadian Journal of Zoology 66: 2149-2453). It also enables the development of Myzus persicae. This base medium may or may not be supplemented by the various phenolic acids tested. The aphid's selected behavior when placed in the presence of both media is studied inside a closed system where the insect has no alternative in order to feed itself but to select one of the two media. The device is shown in diagram form in FIG. 11.
The medium (35 μl) is poured between two Parafilm® membranes stretched onto an Eppendorf® cone. On a rack holding 6 experiment cages, a control medium is arranged opposite a test medium on each cage. The repetitions of a single modality (control medium or test medium) are arranged in alternating fashion along the rack, in order to prevent any systematic bias when the aphids are placed inside. At the end of the day, six aphid larvae (second or third stage) are placed inside each of the cages of one rack. Next, the racks are inserted into a black box placed inside a climate-controlled test chamber at 19° C. for 15 hours. This passage into darkness stabilizes the larvae's fixation more quickly. The following morning, the number of aphids fixed on each medium is recorded. The tests are performed in routine fashion on 24 selection repetitions (4 racks with 6 cages each). A phagostimulation index, representing the degree of desire for the aphid in the test medium, is calculated as follows: Phagostimulation index=(Test no.−Control no.)/Total no., wherein:
Test no.=Number of aphids fixed on the test medium,
Control no.=Number of aphids fixed on the control medium,
Total no.=Total number of fixed aphids.
Consequently, the value of the index ranges from −1 to 1. A negative index means that the test medium is repulsive in relation to the control medium, and a positive index means that the test medium is attractive. The hypothesis that the effect of the test medium is identical to that of the control medium is examined by the Wilcoxon rank test.
The tested phenolic substances other than 3,5-diCQ are of commercial origin apart from the caffeic acid methyl ester, which was synthesized. The molecules were characterized by mass spectrometry and proton nuclear magnetic resonance. The amount and stability of the dissolved molecules are monitored by HPLC after the molecules are dissolved in the Ap3 medium, at the beginning and at the end of the experiment.

[3] = tested on: Acyrtosiphon pisum; experiment: Selection test (phagorepulsive effect), first-stage larvae; assay type: in vivo, Acyrthosiphon pisum; details: FIG. 21
Excerpt: as §2
(§3) The medium (35 μl) is poured between two Parafilm® membranes stretched onto an Eppendorf® cone. On a rack holding 6 experiment cages, a control medium is arranged opposite a test medium on each cage. […] The following morning, the number of aphids fixed on each medium is recorded. […] A phagostimulation index, representing the degree of desire for the aphid in the test medium, is calculated as follows: Phagostimulation index=(Test no.−Control no.)/Total no., wherein: […]

[4] = tested on: Acyrtosiphon pisum; experiment: Toxicity test during larval development; assay type: in vivo; details: FIG. 22
Experimental: as §1
(§4) Regarding the toxicity tests, no changes were made to the protocol for tests on Macrosiphum euphorbiae. However, given the size and sensitivity to stress of Acyrthosiphon pisum, the number of individuals per dish was changed to 10, the number of repetitions per tested dose was changed to 4, and no change was made to the medium during the test, as excessive disturbance of the aphids would have resulted from doing so.

[5] = tested on: Macrosiphum euphorbiae; experiment: Toxicity test during larval development; assay type: in vivo; details: FIG. 24
Experimental: as §1, §4

[6] = tested on: Macrosiphum euphorbiae; experiment: Selection test (phagorepulsive effect), first-stage larvae; assay type: in vivo; details: FIG. 23
Excerpt: as §2, §3

[7] = tested on: chewing insects; details: Tamura et al. 2004; Mullin et al. 1991; cited from earlier work
[8] = FIG. 15, range 0.03125 to 1 mM, against Ap3

## O=C(/C=C/c1ccc(O)c(O)c1)O[C@@H]1C[C@](OC(=O)/C=C/c2ccc(O)c(O)c2)(C(=O)O)C[C@@H](O)[C@H]1O [1,5-diCQ, 1,5-dicaffeoylquinic acid]
[1]; in vivo
  toxic effect on larval development (in words): toxic activity

## O=C(/C=C/c1ccc(O)c(O)c1)O[C@@H]1CC(O)(C(=O)O)C[C@@H](OC(=O)/C=C/c2ccc(O)c(O)c2)C1O (stereo partly drawn) [3,5-diCQ, 3,5-dicaffeoylquinic acid]
[2]; 0.03125 mM
  repulsive effect at 0.03125 mM (in words): no toxic or repulsive effect
[2]; FIG. 13
  concentration at which significantly repulsive: 0.125 mM
[2]; FIG. 13, tested against each other, at 0.125 mM
  choice between 3,5-diCQ and chlorogenic acid at a single molarity: systematically selects CA rather than 3,5-diCQ
[2]; FIG. 14, pH 7.5, CA four times higher
  repulsive effect of 0.5 mM versus chlorogenic acid at 2 mM: remains repulsive
[2]; [8]
  dose with highly significant repulsive effect: 0.125 mM
[2]; in vivo
  minimum concentration at which repulsive effect is detectable: 125 µM
  repulsive effect / activity (in words): repulsive activity
[2]; same value converted
  minimum concentration at which repulsive effect is detectable: 64.5 mg/L
[1]; 0.03125 mM
  toxic effect at 0.03125 mM (in words): no toxic or repulsive effect
[1]; 1 and 2 mM concentrations
  reaching the wingless adult stage: no aphids reached the wingless adult stage
[1]; FIG. 16, at 2 mM
  larval mortality: ~100%
[1]; FIG. 17
  dose starting at which significant depressive effect on weight of wingless adults: 0.25 mM
[1]; FIG. 20
  dose with significant depressive effect on weight of wingless adults: 0.5 mM
[1]; in vivo
  toxic effect on larval development (in words): high mortality
[1]; in vivo, listed as 3,5-dicaffeoylquinic acid
  toxic effect on larval development (in words): toxic activity
[3]
  dose starting at which significant repulsive effect: 0.03125 mM
[4]; starting at 0.03125 mM, within 2 days
  mortality: exceeds 50%
[4]; starting at 0.25 mM, within 4 days
  mortality: 100%
[5]; 0.25 mM dose, within 6 days
  mortality: ~100%
[5]; 0.5 and 1 mM doses, within 3 to 7 days
  mortality: 100%
[6]
  dose starting at which highly significant repulsive effect: 0.125 mM
[7]
  effect on feeding of chewing insects (in words): phagostimulating effect

## O=C(/C=C/c1ccc(O)c(O)c1)O[C@H]1[C@H](O)C[C@](O)(C(=O)O)C[C@H]1OC(=O)/C=C/c1ccc(O)c(O)c1 [4,5-diCQ, 4,5-dicaffeoylquinic acid]
[2]; [8]
  dose starting at which significant repulsive effects were detected: 0.03125 mM
  dose with highly significant repulsive effect: 0.125 mM
[2]; in vivo
  repulsive effect / activity (in words): repulsive activity
[1]; FIG. 20
  dose with significant depressive effect on weight of wingless adults: 0.25 mM
[1]; in vivo
  toxic effect on larval development (in words): toxic activity

## O=C(O)/C=C/c1ccc(O)cc1 [Para-coumaric acid, para-coumaric acid, reference compound]
[2]; FIG. 12, concentration range tested, against Ap3 medium
  repulsive effect (in words): no repulsive effect

## O=C(/C=C/c1ccc(O)c(O)c1)O[C@@H]1C[C@](O)(C(=O)O)C[C@@H](O)[C@H]1O [chlorogenic acid, 5-caffeoylquinic acid, reference compound]
[2]; FIG. 12
  concentration at which the repulsive effect (negative phagostimulation index) is significant: 0.5 mM
[2]; FIG. 13
  concentration at which significantly repulsive: 0.25 mM
[1]; FIG. 18
  effect on weight of wingless adults (in words): probiotic effect
[1]; in vivo
  larval mortality: ≤ 10%
  toxic effect on larval development (in words): no negative effects

## O=C(/C=C/c1ccc(O)c(O)c1)O[C@@H]1C[C@@](OC(=O)/C=C/c2ccc(O)c(O)c2)(C(=O)O)C[C@@H](O)[C@@H]1O [cynarin]
[2]; FIG. 12
  concentration at which the repulsive effect (negative phagostimulation index) is significant: 1 mM
[1]; FIG. 20, at the 0.25 mM dose
  effect on the aphids' weights (in words): no effect

— patent US8921420B2, “Method for preparing dicaffeoylquinic acids and use thereof in combating aphids” (Institut National de la Recherche Agronomique, priority 2008, dated 2014)
